{
  "source": "patent US20170252433A1",
  "about": "“PSMA-RELATED THERAPIES” (Memorial Sloan Kettering Cancer Center, priority 2014, published 2017)",
  "key": {"nitric oxide synthase": {"system": "nitric oxide synthase", "experiment": "Nitric oxide synthase activity (total nitrate levels)", "type": "cell-based, human", "conditions": "5 μM, 48 h", "experimental": "(§1) Gene expression array was performed after TRIzol-based RNA extraction on an U133A 2.0 gene array (Affymetrix, Santa Clara, Calif.). The output of the androgen receptor (AR) pathway was assessed by measuring the levels of prostate specific antigen (PSA). LNCaP cells that have a functional AR pathway were obtained from ATCC (Manassas, Va.) and grown to confluence. Then they were treated for 48 h with 2-PMPA (5 μM) for 48 h, followed by screening of the culture medium for secreted PSA with the DELFIA PSA assay (Perkin Elmer, Waltham, Mass.). The levels of nitric oxide attributed to nitric oxide synthase's activity and the concentration of total secreted prostaglandins were quantified with the corresponding kits purchased from Cayman Chemicals (Ann Arbor, Mich.). Alterations in energy production due to signaling changes were determined through quantification of the intracellular NAD+ and ATP lelels, using the NAD assay from Cayman Chemicals (Ann Arbor, Mich.) and the StayBrite ATP kit from Biovision (Milpitas, Calif.).\nFurthermore, it was examined whether PSMA inhibition affects the activity of nitric oxide synthase and the levels of prostaglandins, since both Akt and Ca+2 regulate these processes. […]"}, "[1]": {"system": "PSMA-expressing prostate cancer cells (LNCaP-wt, PC3-hPSMA) and PC3-wt", "experiment": "Cytoplasmic calcium quantification (Fluo4 assay)", "type": "cell-based, human", "experimental": "Cells were seeded at a density of 10,000 per well on a 96-well plate and grown overnight. Loading of the calcium-sensing dye Fluo4 (Life Technologies, Calrsbad, Calif.) was performed according to the manufacturer's instructions. Where indicated the cells were treated with thapsigargin (1 μM, Tocris, Minneapolis, Minn.), L-Quisqualic acid (110 μM, Tocris), 3,5-DHPG (0.67 mM, Tocris), L-AP3 (125 μM, Tocris), U73122 (50 μM, Tocris), and 2-PMPA (100 μM, Tocris) immediately before measuring calcium levels, with a SpectraMax M5 plate reader (Molecular Devices, Sunnyvale, Calif.).\nThe effect of PSMA expression on calcium homeostasis in prostate cancer cell lines was evaluated using the fluorimetric Fluo4 assay kit (Invitrogen), according to the supplier's instructions. The plate was excited at 490 nm, and fluorescence emission was monitored at 520 nm with the SpectraMax M5 plate reader (Molecular Devices). […] To examine calcium accumulation in the cytoplasm, the cells were treated with thapsigargin (1 μM, Tocris) immediately prior to taking measurements with the plate reader. […] Furthermore, we investigated whether PSMA facilitates calcium signaling via the mGluR Group I receptors through its enzymatic activity. The cells were treated with either L-Quisqualic acid (110 μM; mGluR I agonist, Tocris), L-AP3 (125 μM; mGluR I antagonist, Tocris) or a PSMA inhibitor (100 μM, Tocris), immediately prior to taking calcium measurements."}, "LNCaP-wt cells [2]": {"system": "LNCaP-wt cells", "experiment": "Human phospho-kinase array (kinome profiling)", "type": "cell-based", "conditions": "48 h, 5 μM, FIG. 4a", "experimental": "CAMKK2, AMPKα and AKT antibodies were purchased from Cell Signaling (Danvers, Mass.). Cells were grown to confluence and treated with 2-PMPA (5 μM, Tocris) for 48 h. The phosphorylation status of proteins of interest was determined with an isoelectric-focusing instrument (NanoPro1000, Protein Simple, Santa Clara, Calif.), where the samples were prepared and analyzed according to the supplier's guidelines. Determination of site-specific phosphorylation of key proteins was performed with a human phosphor-kinase array (ARY003, R&D Systems, Minneapolis, Minn.), according to the product's instructions.\nConsidering that PSMA inhibition affected the phosphorylation of some key kinases, a human kinome-profiling array from R&D Systems was utilized to obtain a wider view of other kinases being regulated by this protein. LNCaP-wt cells were grown in the presence of a PSMA inhibitor (48 h, 5 μM) and PC3-PSMA cells were grown under puromycin-induced selection. Control cells included LNCaP-wt and PC3-wt cells grown for 48 h in complete RPMI media. The cells were lysed and processed according to the array's protocol, and the array was performed according to its supplier's guideline. Imaging of the array's membranes was performed after film exposure in the presence of a chemiluniescent substrate and HRP-conjugated detecting antibodies, processed in a dark room."}, "LNCaP-wt cells [3]": {"system": "LNCaP-wt cells", "experiment": "Androgen receptor pathway output: secreted PSA (DELFIA PSA assay)", "type": "cell-based, human", "conditions": "5 μM, 48 h", "experimental": "as §1\nSince PSMA regulates Akt phosphorylation, it was investigated whether inhibition of PSMA and subsequent downregulation of Akt activity affected the status of the androgen receptor (AR) pathway. […]"}, "LNCaP and PC3-PSMA cells": {"system": "LNCaP and PC3-PSMA cells", "experiment": "Total secreted prostaglandins", "type": "cell-based, human", "conditions": "5 μM, 48 h, FIG. 5c-d"}},
  "data": [
    {"compound": "O=C(O)CCC(CP(=O)(O)O)C(=O)O", "note": "(centres unmarked) [2-PMPA]", "values": [
      {"measurement": "nitrate concentration", "setting": "nitric oxide synthase; PC3-wt cells that do not express PSMA", "result": "did not affect nitrate concentration"},
      {"measurement": "nitric oxide synthase activity (nitrate levels)", "setting": "nitric oxide synthase; PSMA-expressing cells, FIG. 5c-d", "result": "decreased nitric oxide synthase activity"},
      {"measurement": "cytoplasmic calcium levels", "setting": "[1]; PSMA inhibition compared with Phospholipase C inhibitor U73122 50 μM, FIG. 1d", "result": "reduction in calcium levels"},
      {"measurement": "cytoplasmic calcium levels", "setting": "[1]; PSMA-expressing cells, PSMA inhibitor 100 μM, L-AP3 125 μM, FIG. 1c", "result": "lowered calcium levels"},
      {"measurement": "phosphorylation of many proteins including TOR, p27, and Src", "setting": "LNCaP-wt cells [2]", "result": "decreased"},
      {"measurement": "PSA mRNA levels", "setting": "LNCaP-wt cells [3]", "result": "did not affect PSA's mRNA levels"},
      {"measurement": "PSA levels in culturing medium", "setting": "LNCaP-wt cells [3]; FIG. 5a", "result": "increased PSA levels"},
      {"measurement": "total levels of secreted prostaglandins", "setting": "LNCaP and PC3-PSMA cells", "result": "decreased"}
    ]}
  ]
}
